Source: ChEMBL document CHEMBL4507324 (2021)

Tests used:
Settings in all cases: Compound concentration 100.0 nM
[1] = target: Tyrosine-protein kinase JAK1 (Homo sapiens) (UniProt P23458)
[2] = test system: Phosphatidylinositol 4,5-bisphosphate 3-kinase catalytic subunit alpha isoform (Homo sapiens), P42336 [H1047Y]
[3] = target: Tyrosine-protein kinase ABL1 (Homo sapiens) (UniProt P00519)
[4] = target: Ephrin type-A receptor 3 (Homo sapiens) (UniProt P29320)
[5] = target: Dual specificity protein kinase CLK1 (Homo sapiens) (UniProt P49759)
[6] = target: Bone morphogenetic protein receptor type-2 (Homo sapiens) (UniProt Q13873)
[7] = target: Myosin light chain kinase (Homo sapiens) (UniProt Q32MK0)
[8] = target: Dual serine/threonine and tyrosine protein kinase (Homo sapiens) (UniProt Q6XUX3)
[9] = target: SNF-related serine/threonine-protein kinase (Homo sapiens) (UniProt Q9NRH2)
[10] = target: Maternal embryonic leucine zipper kinase (Homo sapiens) (UniProt Q14680)
[11] = target: cAMP-dependent protein kinase catalytic subunit alpha (Homo sapiens) (UniProt P17612)
[12] = target: Tyrosine-protein kinase BTK (Homo sapiens) (UniProt Q06187)
[13] = target: Phosphatidylinositol 4,5-bisphosphate 3-kinase catalytic subunit alpha isoform (Homo sapiens) (UniProt P42336)
Phosphatidylinositol 4,5-bisphosphate 3-kinase catalytic subunit alpha isoform (Homo sapiens), sequence (P42336 whole entry, canonical isoform): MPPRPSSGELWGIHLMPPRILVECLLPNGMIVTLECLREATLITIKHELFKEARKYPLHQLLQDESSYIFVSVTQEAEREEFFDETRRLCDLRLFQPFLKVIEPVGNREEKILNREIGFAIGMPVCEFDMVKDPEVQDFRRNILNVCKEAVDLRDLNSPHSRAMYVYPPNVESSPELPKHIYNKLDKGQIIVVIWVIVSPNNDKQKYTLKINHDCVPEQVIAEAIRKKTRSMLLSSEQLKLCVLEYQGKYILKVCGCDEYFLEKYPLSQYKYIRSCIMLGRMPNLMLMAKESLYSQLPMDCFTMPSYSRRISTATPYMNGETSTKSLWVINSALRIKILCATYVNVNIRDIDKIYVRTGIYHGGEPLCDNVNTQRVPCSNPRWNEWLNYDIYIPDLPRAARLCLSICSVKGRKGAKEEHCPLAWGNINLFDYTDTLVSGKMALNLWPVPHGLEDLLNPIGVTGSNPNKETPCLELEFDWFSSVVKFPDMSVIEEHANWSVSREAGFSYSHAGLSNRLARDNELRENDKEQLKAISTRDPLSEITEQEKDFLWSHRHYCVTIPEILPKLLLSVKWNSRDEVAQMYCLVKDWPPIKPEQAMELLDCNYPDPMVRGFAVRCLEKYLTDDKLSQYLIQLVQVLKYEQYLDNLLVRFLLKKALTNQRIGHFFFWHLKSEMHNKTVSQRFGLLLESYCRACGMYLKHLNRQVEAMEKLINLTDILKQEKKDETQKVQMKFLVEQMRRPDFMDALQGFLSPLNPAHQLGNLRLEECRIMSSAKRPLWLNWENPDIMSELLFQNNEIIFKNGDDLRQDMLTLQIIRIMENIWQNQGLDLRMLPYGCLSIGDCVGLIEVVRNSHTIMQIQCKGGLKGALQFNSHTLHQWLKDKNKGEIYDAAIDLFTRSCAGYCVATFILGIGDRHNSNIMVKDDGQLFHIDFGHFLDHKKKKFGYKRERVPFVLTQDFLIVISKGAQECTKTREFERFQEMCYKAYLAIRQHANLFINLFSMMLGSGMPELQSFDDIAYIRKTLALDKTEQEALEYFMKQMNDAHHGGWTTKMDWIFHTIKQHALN

[14] = target: Fibroblast growth factor receptor 2 (Homo sapiens) (UniProt P21802)
[15] = target: Tyrosine-protein kinase ITK/TSK (Homo sapiens) (UniProt Q08881)
[16] = target: Serine/threonine-protein kinase MARK2 (Homo sapiens) (UniProt Q7KZI7)
[17] = target: Homeodomain-interacting protein kinase 2 (Homo sapiens) (UniProt Q9H2X6)
[18] = target: TRAF2 and NCK-interacting protein kinase (Homo sapiens) (UniProt Q9UKE5)
[19] = target: Serine/threonine-protein kinase Nek9 (Homo sapiens) (UniProt Q8TD19)
Serine/threonine-protein kinase Nek9 (Homo sapiens), sequence (Q8TD19 whole entry): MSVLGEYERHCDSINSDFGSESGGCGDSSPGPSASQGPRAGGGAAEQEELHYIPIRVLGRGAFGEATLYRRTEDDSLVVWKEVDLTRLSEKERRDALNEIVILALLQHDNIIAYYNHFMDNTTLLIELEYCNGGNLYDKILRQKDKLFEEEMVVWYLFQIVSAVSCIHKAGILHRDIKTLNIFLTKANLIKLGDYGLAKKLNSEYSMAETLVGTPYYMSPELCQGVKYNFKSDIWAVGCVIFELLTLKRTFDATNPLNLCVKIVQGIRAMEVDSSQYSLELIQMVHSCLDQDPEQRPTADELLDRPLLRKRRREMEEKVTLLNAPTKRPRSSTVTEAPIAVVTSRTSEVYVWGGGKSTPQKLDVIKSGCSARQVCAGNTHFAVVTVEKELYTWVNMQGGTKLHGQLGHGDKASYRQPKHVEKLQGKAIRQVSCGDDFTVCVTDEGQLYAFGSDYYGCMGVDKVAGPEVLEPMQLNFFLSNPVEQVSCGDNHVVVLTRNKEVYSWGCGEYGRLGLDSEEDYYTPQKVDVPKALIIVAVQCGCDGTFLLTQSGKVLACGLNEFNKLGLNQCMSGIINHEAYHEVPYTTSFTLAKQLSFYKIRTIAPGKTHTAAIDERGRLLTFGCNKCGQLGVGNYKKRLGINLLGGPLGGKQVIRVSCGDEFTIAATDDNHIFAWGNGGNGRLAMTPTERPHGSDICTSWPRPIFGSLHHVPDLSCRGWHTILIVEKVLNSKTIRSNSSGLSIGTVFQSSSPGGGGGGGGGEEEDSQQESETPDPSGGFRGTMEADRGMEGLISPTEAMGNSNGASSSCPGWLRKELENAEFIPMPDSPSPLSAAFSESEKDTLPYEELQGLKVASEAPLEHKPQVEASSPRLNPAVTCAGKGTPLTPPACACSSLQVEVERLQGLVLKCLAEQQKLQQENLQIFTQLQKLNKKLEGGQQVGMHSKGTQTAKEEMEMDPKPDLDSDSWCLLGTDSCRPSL

[20] = target: Serine/threonine-protein kinase PLK2 (Homo sapiens) (UniProt Q9NYY3)
[21] = target: Ephrin type-A receptor 8 (Homo sapiens) (UniProt P29322)
[22] = target: Protein kinase C epsilon type (Homo sapiens) (UniProt Q02156)
[23] = target: Mitogen-activated protein kinase kinase kinase kinase 1 (Homo sapiens) (UniProt Q92918)
[24] = target: Cyclin-dependent kinase 2 homolog (Plasmodium falciparum (isolate 3D7)) (UniProt P61075)
[25] = target: Tyrosine-protein kinase receptor UFO (Homo sapiens) (UniProt P30530)
[26] = target: Myosin-IIIb (Homo sapiens) (UniProt Q8WXR4)
Myosin-IIIb (Homo sapiens), sequence (Q8WXR4 whole entry): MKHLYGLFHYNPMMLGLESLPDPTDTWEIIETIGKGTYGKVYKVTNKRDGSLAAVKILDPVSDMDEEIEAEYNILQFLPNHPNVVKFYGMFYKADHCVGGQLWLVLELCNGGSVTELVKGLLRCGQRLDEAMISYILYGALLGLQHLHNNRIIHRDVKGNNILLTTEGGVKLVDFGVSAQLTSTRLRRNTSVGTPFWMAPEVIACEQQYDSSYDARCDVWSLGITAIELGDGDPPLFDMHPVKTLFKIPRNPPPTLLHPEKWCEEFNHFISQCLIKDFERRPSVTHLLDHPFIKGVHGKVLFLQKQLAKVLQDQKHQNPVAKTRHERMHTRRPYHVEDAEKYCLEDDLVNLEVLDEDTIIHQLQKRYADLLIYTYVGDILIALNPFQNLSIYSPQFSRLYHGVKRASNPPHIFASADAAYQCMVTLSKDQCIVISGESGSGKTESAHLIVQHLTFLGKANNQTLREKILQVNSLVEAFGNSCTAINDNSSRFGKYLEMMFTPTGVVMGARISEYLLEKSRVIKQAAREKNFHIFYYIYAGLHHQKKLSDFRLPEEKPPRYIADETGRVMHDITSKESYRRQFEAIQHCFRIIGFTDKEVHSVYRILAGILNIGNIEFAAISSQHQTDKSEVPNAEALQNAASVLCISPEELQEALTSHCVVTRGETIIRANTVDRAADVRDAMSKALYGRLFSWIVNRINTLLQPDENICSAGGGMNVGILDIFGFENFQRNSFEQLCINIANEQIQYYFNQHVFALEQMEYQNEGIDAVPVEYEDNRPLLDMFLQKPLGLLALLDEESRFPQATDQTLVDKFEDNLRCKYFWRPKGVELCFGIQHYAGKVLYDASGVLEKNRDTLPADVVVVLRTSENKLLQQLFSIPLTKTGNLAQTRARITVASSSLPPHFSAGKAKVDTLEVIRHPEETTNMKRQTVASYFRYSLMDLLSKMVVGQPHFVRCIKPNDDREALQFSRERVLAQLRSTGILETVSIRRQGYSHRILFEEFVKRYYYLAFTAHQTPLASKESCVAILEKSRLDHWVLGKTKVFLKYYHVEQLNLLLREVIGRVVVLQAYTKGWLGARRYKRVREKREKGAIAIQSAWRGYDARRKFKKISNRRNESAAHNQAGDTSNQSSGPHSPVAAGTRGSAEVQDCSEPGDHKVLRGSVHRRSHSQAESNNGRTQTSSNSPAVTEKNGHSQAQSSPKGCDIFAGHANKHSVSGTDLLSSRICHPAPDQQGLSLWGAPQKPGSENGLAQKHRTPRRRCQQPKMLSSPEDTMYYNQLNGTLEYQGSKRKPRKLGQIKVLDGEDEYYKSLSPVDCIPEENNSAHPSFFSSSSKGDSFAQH

[27] = target: Tyrosine-protein kinase CSK (Homo sapiens) (UniProt P41240)
[28] = target: Uncharacterized serine/threonine-protein kinase SBK3 (Homo sapiens) (UniProt P0C264)
[29] = target: Glycogen synthase kinase-3 beta (Homo sapiens) (UniProt P49841)
[30] = target: Mitogen-activated protein kinase kinase kinase 20 (Homo sapiens) (UniProt Q9NYL2)
[31] = target: Serine/threonine-protein kinase pim-3 (Homo sapiens) (UniProt Q86V86)
[32] = target: Cytoplasmic tyrosine-protein kinase BMX (Homo sapiens) (UniProt P51813)
[33] = target: 5'-AMP-activated protein kinase catalytic subunit alpha-1 (Homo sapiens) (UniProt Q13131)
[34] = target: Cyclin-dependent kinase 3 (Homo sapiens) (UniProt Q00526)
[35] = test system: Receptor-type tyrosine-protein kinase FLT3 (Homo sapiens), P36888 [R834Q]
[36] = target: Mitogen-activated protein kinase 9 (Homo sapiens) (UniProt P45984)
[37] = target: G protein-coupled receptor kinase 4 (Homo sapiens) (UniProt P32298)
G protein-coupled receptor kinase 4 (Homo sapiens), sequence (P32298 whole entry, looked up): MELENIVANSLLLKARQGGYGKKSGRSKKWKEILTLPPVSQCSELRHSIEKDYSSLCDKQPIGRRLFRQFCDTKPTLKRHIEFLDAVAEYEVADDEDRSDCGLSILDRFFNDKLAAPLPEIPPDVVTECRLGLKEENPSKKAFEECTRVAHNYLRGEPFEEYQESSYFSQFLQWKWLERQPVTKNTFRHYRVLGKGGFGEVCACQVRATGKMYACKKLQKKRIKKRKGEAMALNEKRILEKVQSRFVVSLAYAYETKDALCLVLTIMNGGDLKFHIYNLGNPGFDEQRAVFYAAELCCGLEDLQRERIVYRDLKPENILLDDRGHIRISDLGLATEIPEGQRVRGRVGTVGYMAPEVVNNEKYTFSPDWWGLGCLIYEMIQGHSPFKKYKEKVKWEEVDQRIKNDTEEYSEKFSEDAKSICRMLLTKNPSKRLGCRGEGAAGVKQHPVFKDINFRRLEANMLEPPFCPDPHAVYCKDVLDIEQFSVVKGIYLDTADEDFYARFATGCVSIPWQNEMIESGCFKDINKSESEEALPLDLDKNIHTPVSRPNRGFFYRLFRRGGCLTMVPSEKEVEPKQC

[38] = test system: Epidermal growth factor receptor (Homo sapiens), P00533 [UNDEFINED MUTATION]
[39] = test system: Epidermal growth factor receptor (Homo sapiens), P00533 [L858R,T790M]
[40] = target: Calcium/calmodulin-dependent protein kinase type II subunit alpha (Homo sapiens) (UniProt Q9UQM7)
[41] = target: Cyclin-dependent kinase 17 (Homo sapiens) (UniProt Q00537)
Cyclin-dependent kinase 17 (Homo sapiens), sequence (Q00537 whole entry, looked up): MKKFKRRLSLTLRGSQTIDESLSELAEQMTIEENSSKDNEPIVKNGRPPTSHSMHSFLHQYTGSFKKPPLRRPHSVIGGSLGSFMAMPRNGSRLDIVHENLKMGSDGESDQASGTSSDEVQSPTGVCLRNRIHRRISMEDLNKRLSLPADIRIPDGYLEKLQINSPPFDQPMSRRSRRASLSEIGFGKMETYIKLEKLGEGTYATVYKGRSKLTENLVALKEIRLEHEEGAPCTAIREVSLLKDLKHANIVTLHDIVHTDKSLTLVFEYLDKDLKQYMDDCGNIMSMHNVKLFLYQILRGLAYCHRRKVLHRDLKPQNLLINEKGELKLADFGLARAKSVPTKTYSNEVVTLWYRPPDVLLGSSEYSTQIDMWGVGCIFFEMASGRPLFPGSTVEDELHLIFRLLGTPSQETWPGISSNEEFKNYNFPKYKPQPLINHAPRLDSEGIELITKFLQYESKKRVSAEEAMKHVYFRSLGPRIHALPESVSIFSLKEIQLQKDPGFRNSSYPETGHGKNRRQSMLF

[42] = target: Mitogen-activated protein kinase 6 (Homo sapiens) (UniProt Q16659)
[43] = target: Myosin light chain kinase, smooth muscle (Homo sapiens) (UniProt Q15746)
[44] = target: Cyclin-dependent kinase 15 (Homo sapiens) (UniProt Q96Q40)
Cyclin-dependent kinase 15 (Homo sapiens), sequence (Q96Q40 whole entry): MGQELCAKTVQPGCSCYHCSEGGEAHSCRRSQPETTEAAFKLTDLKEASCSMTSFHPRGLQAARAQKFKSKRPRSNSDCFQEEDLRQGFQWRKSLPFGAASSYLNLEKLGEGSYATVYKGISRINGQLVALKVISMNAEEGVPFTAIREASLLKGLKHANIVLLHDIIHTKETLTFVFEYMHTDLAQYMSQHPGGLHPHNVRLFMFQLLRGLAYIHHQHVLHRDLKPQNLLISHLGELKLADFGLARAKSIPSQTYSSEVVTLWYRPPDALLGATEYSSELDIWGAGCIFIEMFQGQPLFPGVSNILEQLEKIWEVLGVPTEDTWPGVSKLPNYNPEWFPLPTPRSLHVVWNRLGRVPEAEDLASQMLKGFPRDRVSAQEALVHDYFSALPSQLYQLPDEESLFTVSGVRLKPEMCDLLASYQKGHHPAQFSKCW

[45] = target: Serine/threonine-protein kinase 38 (Homo sapiens) (UniProt Q15208)

Phosphatidylinositol 4,5-bisphosphate 3-kinase catalytic subunit alpha isoform (Homo sapiens), P42336 [H1047Y], sequence (P42336 whole entry H1047Y, canonical isoform): as the sequence (P42336 whole entry, canonical isoform) above, with H1047Y counted along it

CS(=O)(=O)N1CCCC(NC(=O)[C@H](CCC2CCCCC2)NC(=O)c2ccc(CNc3ncnc4c3nnn4-c3ccccc3)cc2)C1 (stereo not given in full) [SR-301]
residual activity [1]: 89% | residual activity [2]: 100% | residual activity [3]: 82% | residual activity [4]: 75% | residual activity [5]: 87% | residual activity [6]: 100% | residual activity [7]: 100% | residual activity [8]: 80% | residual activity [9]: 81% | residual activity [10]: 100% | residual activity [11]: 100% | residual activity [12]: 100% | residual activity [13]: 98% | residual activity [14]: 97% | residual activity [15]: 100% | residual activity [16]: 100% | residual activity [17]: 100% | residual activity [18]: 45% | residual activity [19]: 100% | residual activity [20]: 99% | residual activity [21]: 100% | residual activity [22]: 63% | residual activity [23]: 100% | residual activity [24]: 100% | residual activity [25]: 79% | residual activity [26]: 100% | residual activity [27]: 91% | residual activity [28]: 100% | residual activity [29]: 100% | residual activity [30]: 89% | residual activity [31]: 100% | residual activity [32]: 79% | residual activity [33]: 100% | residual activity [34]: 82% | residual activity [35]: 94% | residual activity [36]: 83% | residual activity [37]: 100% | residual activity [38]: 94% | residual activity [39]: 84% | residual activity [40]: 100% | residual activity [41]: 86% | residual activity [42]: 94% | residual activity [43]: 100% | residual activity [44]: 74% | residual activity [45]: 83%

CS(=O)(=O)N1CCCC(NC(=O)[C@H](CCC2CCCCC2)NC(=O)c2ccc(CNC(=O)c3cnc4ccccn34)cc2)C1 (stereo not given in full) [SR-302]
residual activity [1]: 100% | residual activity [2]: 84% | residual activity [3]: 61% | residual activity [4]: 97% | residual activity [5]: 86% | residual activity [6]: 100% | residual activity [7]: 88% | residual activity [8]: 100% | residual activity [9]: 69% | residual activity [10]: 100% | residual activity [11]: 100% | residual activity [12]: 100% | residual activity [13]: 86% | residual activity [14]: 100% | residual activity [15]: 90% | residual activity [16]: 100% | residual activity [17]: 100% | residual activity [18]: 100% | residual activity [19]: 100% | residual activity [20]: 100% | residual activity [21]: 89% | residual activity [22]: 83% | residual activity [23]: 95% | residual activity [24]: 100% | residual activity [25]: 96% | residual activity [26]: 89% | residual activity [27]: 100% | residual activity [28]: 66% | residual activity [29]: 100% | residual activity [30]: 79% | residual activity [31]: 99% | residual activity [32]: 100% | residual activity [33]: 100% | residual activity [34]: 100% | residual activity [35]: 100% | residual activity [36]: 90% | residual activity [37]: 100% | residual activity [38]: 100% | residual activity [39]: 100% | residual activity [40]: 100% | residual activity [41]: 80% | residual activity [42]: 96% | residual activity [43]: 100% | residual activity [44]: 95% | residual activity [45]: 81%
